Nine compounds from PubChem BioAssay (NCI) can be followed below.

Common to all, as to assay: inhibition of tumour cell growth, NCI panel, 48 h
The subject of experiment [1] is SK-OV-3 ovarian.
In experiment [2] the test system is OVCAR-8 ovarian.
For experiment [3], the system named is A498 renal.
Experiment [4] concerns NCI-H226 lung.
For experiment [5], the system named is SF-295 CNS.
The test system of experiment [6] is LOX IMVI melanoma.
In experiment [7] the test system is HCC-2998 colon.
In experiment [8] the test system is COLO 205 colon.
The test system of experiment [9] is UACC-257 melanoma.
In experiment [10] the test system is SNB-75 CNS.

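The compound was tested at five concentrations on cells cultured in 96-well plates, with a 48-hour exposure period. GI50 is the concentration that inhibits growth by half. Definition used: TGI = concentration required for complete inhibition of growth.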

As for `CCCCOC(=O)c1ccc(N)cc1`, the GI50 in experiment [1] is more than 100 µM; in [2], more than 100 µM; in [3], 33.6 µM; in experiment [4], 63.6 µM; in experiment [5], 19 µM; in experiment [6], 30.8 µM. Moreover, the GI50 in experiment [7] was 22.7 µM; in [8], 32.1 µM; in experiment [9], 52.2 µM; in [10], 41 µM. For the same compound, the TGI was more than 100 µM in experiment [1]; more than 100 µM in experiment [2]; more than 100 µM in experiment [3]; more than 100 µM in [4]; 89.1 µM in experiment [5]; more than 100 µM in experiment [6]. Also, the TGI in experiment [7] is 66.2 µM; in experiment [8], more than 100 µM; in experiment [9], more than 100 µM; in experiment [10] it was more than 100 µM.

On to `Nc1c(C(=O)Nc2ccccc2)sc2nc3c(cc12)CCCCC3`, for which the GI50 in experiment [1] is 0.633 µM; in experiment [2], 1.51 µM; in experiment [3] it was 0.307 µM; in experiment [4], 1.49 µM; in experiment [5] it was 0.366 µM; in experiment [6], 0.907 µM. Further, the GI50 in experiment [7] was 1.01 µM; in [9], 1.46 µM; in experiment [10] it was 0.378 µM. The TGI in experiment [1] is 10.8 µM; in experiment [2], more than 100 µM; in experiment [3], 4.74 µM; in experiment [4], 24.7 µM; in experiment [5], 4.04 µM; in [6], more than 100 µM. Also, the TGI is more than 100 µM in experiment [7], more than 100 µM in experiment [9] and 2.91 µM in experiment [10].

`CC1=C2CC(C)(C)/C=C\C(=O)/C(C)=C\C3=C[C@H](C)C[C@]3(O2)C1=O`: the TGI in experiment [1] worked out at 24.6 µM; in experiment [2], 6.82 µM; in experiment [3] it was 11.1 µM; in [4], 8.49 µM; in [5], 22 µM; in experiment [6], 1.64 µM. Besides, the TGI was 10.2 µM in experiment [7], 9.27 µM in experiment [8], 4.41 µM in experiment [9] and 12.2 µM in experiment [10].

For `CCCCCCCCCCCCCCCC1=NCCN1`, the GI50 was 2.23 µM in experiment [1]; 2.67 µM in experiment [2]; 2.14 µM in experiment [3]; 2.12 µM in experiment [4]; 1.97 µM in [5]; 1.85 µM in experiment [7]. The GI50 is 1.86 µM in [8], 3.25 µM in [9] and 1.58 µM in [10]. Moreover, the TGI worked out at 4.85 µM in [1]; 6.92 µM in experiment [2]; 6.14 µM in experiment [3]; 4.7 µM in [4]; 3.95 µM in experiment [5]; 3.42 µM in experiment [7]. Besides, the figures for the TGI in experiment [8], in experiment [9] and in experiment [10] were 3.66 µM, 9.55 µM and 3.44 µM, respectively.

On to `COc1ccc2c(c1)c(-c1nc(-c3c[nH]c4ncccc34)cs1)cn2CCCN1CCCCC1`, for which the GI50 in [1] is 1.73 µM; in experiment [2], 2 µM; in [3], 1.82 µM; in experiment [6], 1.67 µM; in experiment [7] it was 1.78 µM; in experiment [8], 1.8 µM. For the same compound, the GI50 in [9] was 1.96 µM; in [10], 1.19 µM. The TGI in [1] stood at 3.27 µM; in experiment [2] it was 3.76 µM; in [3], 3.42 µM; in experiment [6], 3.18 µM; in experiment [7], 3.42 µM; in experiment [8], 3.52 µM. In addition, the TGI in experiment [9] is 3.69 µM; in [10], 3.09 µM.

Regarding `O=C1C(=C(C(F)(F)Cl)C(F)(F)Cl)C2CCC1C2` (configuration not stated), the TGI in [1] is more than 10 µM; in experiment [2] it was 4.24 µM; in experiment [3], more than 10 µM; in experiment [4], more than 9.06 µM; in experiment [5], more than 10 µM; in experiment [6] it was 2.89 µM. Also, the TGI in [7] is more than 10 µM; in experiment [8], 3.25 µM; in experiment [9] it was 4.2 µM; in experiment [10] it was more than 10 µM.

As to `COC(=O)c1ccc2c(c1)C(=O)c1c-2n(CCCCl)c(=O)c2cc([N+](=O)[O-])ccc12`, the GI50 in [1] is more than 100 µM; in experiment [2] it was more than 100 µM; in [3], more than 100 µM; in [4], more than 100 µM; in experiment [5], 52 µM; in [6], 40.9 µM. Further, the GI50 in experiment [7] was more than 100 µM; in experiment [8], more than 100 µM; in [9], more than 100 µM; in [10] it was 61.7 µM. Further, the TGI in experiment [1], in [2], in experiment [3], in [4], in experiment [5] and in [6] was more than 100 µM in each case. Besides, the TGI in experiment [7], in [8], in experiment [9] and in [10] was more than 100 µM each time.

`CO[C@H]1C=CO[C@@]2(C)Oc3c(C)c(O)c4c(O)c(c(CN5CCN(C)CC5)c(O)c4c3C2=O)NC(=O)/C(C)=C\C=C[C@H](C)[C@H](O)C(C)[C@@H](O)C(C)[C@H](OC(C)=O)[C@@H]1C` (some centres not stated): the TGI was more than 100 µM in [1]; more than 100 µM in [2]; more than 100 µM in experiment [3]; more than 100 µM in [4]; more than 100 µM in experiment [5]; more than 71.9 µM in [6]. The TGI is more than 100 µM in [7], 25.2 µM in experiment [8], more than 72.8 µM in experiment [9] and more than 100 µM in [10].

As to `CC(CC(=O)N1C(=O)C(C)(C)[C@@H](O)[C@H]1CC(C)C(Cl)(Cl)Cl)C(Cl)(Cl)Cl` (some centres not stated), the TGI in experiment [1], in experiment [2], in experiment [3], in [4], in [5] and in [6] was more than 100 µM throughout. Besides, the TGI in experiment [7], in experiment [8], in [9] and in experiment [10] was more than 100 µM in each case.
